Measurements taken from paper PMC3885546, “Structural Determinants of the 5′-Methylthioinosine Specificity of Plasmodium Purine Nucleoside Phosphorylase” (PLoS ONE, 2014).
Where a chain is given by its changes, count along the chain named.

Assays:
Experiment in all cases: Substrate kinetics, coupled assay
Type in all cases: biochemical
[1] = target: T1, PfPNP His7Phe (Plasmodium falciparum, UniProt Q8I3X4, H7F); settings: for Km / kcat: substrate = label
T1 construct: made in house; host or cells: Escherichia coli Top 10
T1 sequence (Q8I3X4 1-245 H7F): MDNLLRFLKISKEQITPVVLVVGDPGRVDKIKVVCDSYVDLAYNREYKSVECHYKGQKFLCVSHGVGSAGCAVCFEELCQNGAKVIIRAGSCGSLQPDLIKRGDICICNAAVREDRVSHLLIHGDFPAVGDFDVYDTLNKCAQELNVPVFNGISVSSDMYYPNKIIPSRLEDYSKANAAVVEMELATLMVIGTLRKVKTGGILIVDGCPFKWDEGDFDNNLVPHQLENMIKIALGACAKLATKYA
Description: (§1) Kinetic assays were completed in 50 mM KH2PO4 at pH 7.4 measuring phosphorylysis of inosine or MTI by PNP in a coupled reaction with 60 milliunits/ml xanthine oxidase to convert hypoxanthine to uric acid. Formation of uric acid was measured at 293 nm wavelength (E293 = 12.9 mM^−1 cm^−1), [20]. In cases where activity for MTI was low, increased protein concentration (10 µg/ml) was used to check enzyme function. Assays were performed with excess substrate in the presence of inhibitors. Inhibition studies measured both initial (Ki) and slow onset inhibition (Ki*) for inhibitors. The initial onset inhibition was analyzed by using the following equation: ν ο = (k cat×S)/(K m(1+I/Ki)+S), ν ο is the steady state rate, k cat catalytic rate, S is substrate concentration, Km is Michealis constant for inosine, I is inhibitor concentration, and Ki is the equilibrium dissociation constant.

[2] = target: T2, PfPNP His7Ser (Plasmodium falciparum, UniProt Q8I3X4, H7S); settings: for Km / kcat: substrate = label
T2 construct: made in house; host or cells: Escherichia coli Top 10
T2 sequence (Q8I3X4 1-245 H7S): T1 sequence (Q8I3X4 1-245 H7F) with F7S
Description: as §1

[3] = target: T3, PfPNP Tyr160Ala (Plasmodium falciparum, UniProt Q8I3X4, Y160A); settings: for Km / kcat / reduced catalytic efficiency compared to wild-type PfPNP: substrate = label
T3 construct: made in house; host or cells: Escherichia coli Top 10
T3 sequence (Q8I3X4 1-245 Y160A): T1 sequence (Q8I3X4 1-245 H7F) with F7H, Y160A
Description: as §1

[4] = target: T4, PfPNP Tyr47Ala (Plasmodium falciparum, UniProt Q8I3X4, Y47A); settings: for Km / kcat: substrate = label
T4 construct: made in house; host or cells: Escherichia coli Top 10
T4 sequence (Q8I3X4 1-245 Y47A): T1 sequence (Q8I3X4 1-245 H7F) with F7H, Y47A
Description: as §1

[5] = target: T5, PfPNP Val66Ala (Plasmodium falciparum, UniProt Q8I3X4, V66A); settings: for Km / kcat: substrate = label
T5 construct: made in house; host or cells: Escherichia coli Top 10
T5 sequence (Q8I3X4 1-245 V66A): T1 sequence (Q8I3X4 1-245 H7F) with F7H, V66A
Description: as §1

[6] = target: T6, PfPNP Val66Ile/Tyr160Phe (Plasmodium falciparum, UniProt Q8I3X4, V66I/Y160F); settings: for Km / kcat: substrate = label
T6 construct: made in house; host or cells: Escherichia coli Top 10
T6 sequence (Q8I3X4 1-245 V66I/Y160F): T1 sequence (Q8I3X4 1-245 H7F) with F7H, V66I, Y160F
Description: as §1

[7] = target: T7, PfPNP Val73Ala (Plasmodium falciparum, UniProt Q8I3X4, V73A); settings: for Km / kcat: substrate = label
T7 construct: made in house; host or cells: Escherichia coli Top 10
T7 sequence (Q8I3X4 1-245 V73A): T1 sequence (Q8I3X4 1-245 H7F) with F7H, V73A
Description: as §1

[8] = target: T8, PfPNP Val73Ile/Tyr160Phe (Plasmodium falciparum, UniProt Q8I3X4, V73I/Y160F); settings: for Km / kcat: substrate = label
T8 construct: made in house; host or cells: Escherichia coli Top 10
T8 sequence (Q8I3X4 1-245 V73I/Y160F): T1 sequence (Q8I3X4 1-245 H7F) with F7H, V73I, Y160F
Description: as §1

| Molecule | Km [1] [µM] | kcat [1] [s⁻¹] | Km [2] [µM] | kcat [2] [s⁻¹] | Km [3] [µM] | kcat [3] [s⁻¹] | reduced catalytic efficiency compared to wild-type PfPNP [3] [fold] | Km [4] [µM] | kcat [4] [s⁻¹] | Km [5] [µM] | kcat [5] [s⁻¹] | Km [6] [µM] | kcat [6] [s⁻¹] | Km [7] [µM] | kcat [7] [s⁻¹] | Km [8] [µM] | kcat [8] [s⁻¹] | further results |
| --- | --- | --- | --- | --- | --- | --- | --- | --- | --- | --- | --- | --- | --- | --- | --- | --- | --- | --- |
| 5′-methylthioinosine | 9.6 ± 8 | 0.21 ± 0.03 | 3.2 ± 2.7 | 0.88 ± 0.30 | 200 ± 59 | 0.09 ± 0.01 | ~1000 | 960 | 0.02 ± 0 | 0.3 ± 0.4 | 0.12 ± 0.04 | 11 ± 2 | 0.05 ± 0.00 | 20 ± 10 | 1.9 ± 0.3 | 60 ± 33 | 0.28 ± 0.04 |  |
| OC[C@H]1O[C@@H](n2cnc3c(O)ncnc32)[C@H](O)[C@@H]1O [Inosine, inosine] | 353 ± 22 | 2.2 ± 0.7 | 14 ± 3 | 0.5 ± 0.3 | 5400 ± 120 | 0.1 ± 0.0 | ~1000 | 200 | 0.04 ± 0.00 | 13 ± 10 | 2.4 ± 0.6 | 6.2 ± 3.5 | 1.2 ± 0.16 | 7 ± 4 | 1.1 ± 0.1 | 3.6 ± 1.3 | 0.59 ± 0.13 | Ino/MTI kcat/Km Ratio [1]: 0.3; Ino/MTI kcat/Km Ratio [2]: 0.1; Ino/MTI kcat/Km Ratio [3]: 0.5; Ino/MTI kcat/Km Ratio [4]: 9.3; Ino/MTI kcat/Km Ratio [5]: 0.5; Ino/MTI kcat/Km Ratio [6]: 39; Ino/MTI kcat/Km Ratio [7]: 1.6; Ino/MTI kcat/Km Ratio [8]: 35 |
